{
  "source": "patent US7863313B2",
  "about": "“Methods for the treatment of inflammatory diseases” (Cortical PTY LTD, priority 2003, dated 2011)",
  "key": {"[1]": {"tested_on": "IL-1 induced COX-2 expression", "assay": "MIF-dependent IL-1 induced fibroblast cyclooxygenase-2 expression (flow cytometry)", "assay_type": "cell-based, human", "details": "IL-1+cpd2 versus IL-1; P<0.05; FIG. 4", "excerpt": "The activity of the compounds of formula (I) were further studied in a bioassay utilising MIF-dependent activation of human dermal fibroblasts. Sampey et al have shown that induction of the expression of cyclooxygenase-2 (COX-2) by the cytokine interleukin 1 (IL-1) is dependent upon the presence of MIF, i.e. can be prevented using specific anti-MIF monoclonal antibody ^(17). IL-1-induced COX-2 expression is therefore a MIF-dependent event.\nS112 human dermal fibroblasts were propagated in RPMI/10% foetal calf serum (FCS). Prior to experimentation, cells were seeded at 2×10^5 cells/ml in RPMI/0.1% BSA for 18 hours. […] After 6 hours, cells were collected and intracellular COX-2 protein determined by permeabilisation flow cytometry, as described by Sampey et al ^(18). Cells permeabilised with 0.2% saponin were sequentially labelled with a mouse anti-human COX-2 monoclonal antibody and with sheep-anti-mouse F(ab)2 fragment labelled with fluoroscein isothiocyanate. Cellular fluorescence was determined using a flow cytometer. At least 5000 events were counted for each reading, each of which was performed in duplicate, and the results expressed in mean fluorescence intensity (MFI) after subtraction of negative control-labelled cell fluorescence.\nIn Table 2 and FIG. 2, the effect of each concentration of 2-(2-hydroxyethoxy)-2-(4-hydroxy-3-methylphenyl)-1,3-dioxolane (Compound 1) was determined by subtracting the IL-1+ compound-treated cell MFI from the IL-1-treated cell MFI, and expressed as % inhibition."}, "[2]": {"tested_on": "antigen-specific T cell activation", "assay": "MIF-dependent antigen-specific T cell activation (splenocytes, 3H-thymidine)", "assay_type": "cell-based, mouse", "details": "100 nM-10 μM; mBSA 10 μg/ml; spleen cells of immunized C57Bl/6 mice; P<0.05; FIG. 5", "excerpt": "The activity of compounds of formula (I) was further studied in a bioassay utilising MIF-dependent activation of murine T cell activation. The activation of T lymphocytes in response to exposure to a recall antigen is known to be dependent on the presence of MIF, i.e. can be prevented using specific anti-MIF monoclonal antibody^(7). Antigen-induced T cell activation is therefore a MIF-dependent phenomenon.\nSplenocytes were obtained by Hank's buffered saline flushing of spleens obtained from C57Bl/6 mice previously immunized with methylated bovine serum albumin (mBSA, Sigma Chemical Co., Castle Hill, Australia). Mice were immunized on day 0 with 200 μg mBSA emulsified in 0.2 ml of Freund's complete adjuvant (FCA) injected subcutaneously into the flank skin. On day 7, the mice received 100 μg mBSA/0.1 ml FCA by intradermal injection at the base of the tail. Spleens were removed on day 14 after first immunisation and a single cell suspension was prepared in DMEM containing 5% FCS and 0.05% 2-mercaptoethanol. […] The T cell proliferation response was determined by measuring the amount of [^3H] thymidine incorporation during the final 18 hr. The cells were harvested and radioactivity incorporation into the DNA was measured with a Wallac 1409 liquid scintillation counter (Pharmacia, Turku, Finland)."}},
  "data": [
    {"smiles": "OCCOC1(c2ccc(O)cc2)OCCO1", "note": "[Compound 2, 2-(2-hydroxyethoxy)-2-(4-hydroxyphenyl)-1,3-dioxolane]", "values": [
      {"measurement": "inhibition of IL-induced COX-2 expression, MFI", "setting": "[1]", "value": "Significant inhibition"},
      {"measurement": "reduction in antigen-specific T cell activation", "setting": "[2]", "value": "significant dose-dependent reduction"}
    ]}
  ]
}
